This note sets out measurements from patent US9260416B2, “Heterocyclic autotaxin inhibitors and uses thereof” (AMIRA PHARMACEUTICALS, INC., priority 2011, dated 2016).

Bounds are passed on as bounds.

The assay addresses T1, autotaxin (Homo sapiens, UniProt Q13822).
T1 construct: tissue Biocell Laboratories Inc 1121-00; host or cells: human serum (delipidated, dialyzed)
As to the kind of experiment: Human Serum Autotaxin Assay (choline release from LPC, TOOS detection). It is filed as biochemical. Conditions: dialyzed human serum; substrate LPC 14:0, 300 μM; 4 hours at 37° C.; choline release read at 555 nm. As for the experimental part:
Human Serum Autotaxin Assay
Inhibition of autotaxin activity is assayed in human serum by measuring the amount of choline released from the substrate, lysophosphatidylcholine (LPC). […] To assay for autotaxin inhibition, 20 μl of the dialyzed human serum is incubated with 2 μl test compound in DMSO and 73 μl lyso-PLD buffer (100 mM Tris pH 9, 500 mM NaCl, 5 mM MgCl2, 30 μM CoCl2, 0.05% Triton X-100) for 15 minutes at 37° C. […] 100 μl of a color mix which contains 4.5 mM 4-aminoantipyrine, 2.7 mM N-ethyl-N-(2-hydroxy-3-sulfopropyl)-m-toluidine, 21 units/ml Horseradish peroxidase and 3 units/ml choline oxidase in 50 mM Tris, pH 8, 4.5 mM MgCl2 is added and the incubation continued for 15 minutes at room temperature before reading the absorbance at 555 nm. The concentration of released choline in the sample is determined from a choline standard curve and is equal to the concentration of LPA produced.
What is called IC50 is the midpoint of a concentration-inhibition curve. Low readings indicate higher potency, high ones lower potency. For the compound `Cc1[nH]c2cc(Cl)ccc2c1Sc1cncc(C(=O)O)c1` [Compound 1-1, 5-(6-Chloro-2-methyl-1H-indol-3-ylsulfanyl)-nicotinic acid], the IC50 is > 1000 nM. Regarding `Cc1c(Sc2cncc(C(=O)O)c2)c2ccc(Cl)cc2n1Cc1ccccc1` [Compound 1-2, 5-(1-Benzyl-6-chloro-2-methyl-1H-indol-3-ylsulfanyl)-nicotinic acid], the half-maximal inhibitory concentration (IC50) is > 1000 nM. The figure for `Cc1c(Sc2cncc(C(=O)O)c2)c2ccc(Cl)cc2n1-c1cnn(C)c1` [Compound 1-3, 5-[6-Chloro-2-methyl-1-(1-methyl-1H-pyrazol-4-yl)-1H-indol-3-ylsulfanyl]-nicotinic acid] is < 300 nM. For the compound `CCn1cc(-n2c(C)c(Sc3cncc(C(=O)O)c3)c3ccc(Cl)cc32)cn1` [Compound 1-4, 5-[6-Chloro-1-(1-ethyl-1H-pyrazol-4-yl)-2-methyl-1H-indol-3-ylsulfanyl]-nicotinic acid], the 50% inhibitory concentration (IC50) is < 300 nM. As to `Cc1c(Sc2cncc(C(=O)O)c2)c2ccc(Cl)cc2n1-c1cnn(C(C)C)c1` [Compound 1-5, 5-[6-Chloro-1-(1-isopropyl-1H-pyrazol-4-yl)-2-methyl-1H-indol-3-ylsulfanyl]-nicotinic acid], the IC50 is < 300 nM. For `Cc1c(Sc2cc(C(=O)O)ccn2)c2ccc(Cl)cc2n1-c1cnn(C)c1` [Compound 1-6, 2-[6-Chloro-2-methyl-1-(1-methyl-1H-pyrazol-4-yl)-1H-indol-3-ylsulfanyl]-isonicotinic acid], the IC50 is > 1000 nM. As for `CCn1cc(-n2c(C)c(Sc3cc(C(=O)O)ccn3)c3ccc(Cl)cc32)cn1` [Compound 1-7, 2-[6-Chloro-1-(1-ethyl-1H-pyrazol-4-yl)-2-methyl-1H-indol-3-ylsulfanyl]-isonicotinic acid], the half-inhibitory concentration (IC50) is < 300 nM. To `Cc1c(Sc2cc(C(=O)O)ccn2)c2ccc(Cl)cc2n1-c1cnn(C(C)C)c1` [Compound 1-8, 2-[6-Chloro-1-(1-isopropyl-1H-pyrazol-4-yl)-2-methyl-1H-indol-3-ylsulfanyl]-isonicotinic acid] belongs 300 to 1000 nM. With `CCn1cc(-n2c(C)c(Sc3cccc(C(=O)O)n3)c3ccc(Cl)cc32)cn1` [Compound 1-9, 6-[6-Chloro-1-(1-ethyl-1H-pyrazol-4-yl)-2-methyl-1H-indol-3-ylsulfanyl]-pyridine-2-carboxylic acid], the IC50 is < 300 nM. Regarding `Cc1c(Sc2cccc(C(=O)O)n2)c2ccc(Cl)cc2n1-c1cnn(C)c1` [Compound 1-10, 6-[6-Chloro-2-methyl-1-(1-methyl-1H-pyrazol-4-yl)-1H-indol-3-ylsulfanyl]-pyridine-2-carboxylic acid], the IC50 was < 300 nM.

On to `CCCn1cc(-n2c(C)c(Sc3cccc(C(=O)O)n3)c3ccc(Cl)cc32)cn1` [Compound 1-11, 6-[6-Chloro-2-methyl-1-(1-propyl-1H-pyrazol-4-yl)-1H-indol-3-ylsulfanyl]-pyridine-2-carboxylic acid], for which the half-inhibitory concentration (IC50) is < 300 nM. Regarding `CCn1cc(-n2c(C)c(Sc3cccc(C(=O)O)n3)c3ccc(Cl)c(F)c32)cn1` [Compound 1-12, 6-[6-Chloro-1-(1-ethyl-1H-pyrazol-4-yl)-7-fluoro-2-methyl-1H-indol-3-ylsulfanyl]-pyridine-2-carboxylic acid], the IC50 was < 300 nM.

For `Cc1c(Sc2cccc(C(=O)O)n2)c2ccc(Cl)c(F)c2n1-c1cnn(C(C)C)c1` [Compound 1-13, 6-[6-Chloro-7-fluoro-1-(1-isopropyl-1H-pyrazol-4-yl)-2-methyl-1H-indol-3-ylsulfanyl]-pyridine-2-carboxylic acid], the IC50 is < 300 nM. As for `Cc1c(Sc2cccc(C(=O)O)n2)c2ccc(Cl)cc2n1-c1cnn(C(C)C)c1` [Compound 1-14, 6-[6-Chloro-1-(1-isopropyl-1H-pyrazol-4-yl)-2-methyl-1H-indol-3-ylsulfanyl]-pyridine-2-carboxylic acid], the half-inhibitory concentration (IC50) was < 300 nM. To `CCCn1cc(-n2c(C)c(Sc3cccc(C(=O)O)n3)c3ccc(Cl)c(F)c32)cn1` [Compound 1-15, 6-[6-Chloro-7-fluoro-2-methyl-1-(1-propyl-1H-pyrazol-4-yl)-1H-indol-3-ylsulfanyl]-pyridine-2-carboxylic acid] belongs < 300 nM. To `CCn1cc(-n2c(C)c(Sc3cnn(CC(=O)O)c3)c3ccc(Cl)c(F)c32)cn1` [Compound 1-16, {4-[6-Chloro-1-(1-ethyl-1H-pyrazol-4-yl)-7-fluoro-2-methyl-1H-indol-3-ylsulfanyl]-pyrazol-1-yl}-acetic acid] belongs < 300 nM. On to `CCn1cc(-n2c(C)c(Sc3cccc(CC(=O)O)n3)c3ccc(Cl)c(F)c32)cn1` [Compound 1-17, {6-[6-Chloro-1-(1-ethyl-1H-pyrazol-4-yl)-7-fluoro-2-methyl-1H-indol-3-ylsulfanyl]-pyridin-2-yl}-acetic acid], for which the IC50 was < 300 nM. The figure for `CCCn1cc(-n2c(C)c(Sc3cccc(CC(=O)O)n3)c3ccc(Cl)c(F)c32)cn1` [Compound 1-18, {6-[6-Chloro-7-fluoro-2-methyl-1-(1-propyl-1H-pyrazol-4-yl)-1H-indol-3-ylsulfanyl]-pyridin-2-yl}-acetic acid] is < 300 nM.
